# According to patent US20160311817A1, “HETEROARYL SULTAM DERIVATIVES AS RORc MODULATORS” (Genentech, Inc., priority 2014, published 2016):
# Molecular target: T1, RORc ligand binding domain (Homo sapiens, UniProt P51449)
# T1 construct: host or cells: E. coli
# T1 sequence (P51449 269-508 limits assumed): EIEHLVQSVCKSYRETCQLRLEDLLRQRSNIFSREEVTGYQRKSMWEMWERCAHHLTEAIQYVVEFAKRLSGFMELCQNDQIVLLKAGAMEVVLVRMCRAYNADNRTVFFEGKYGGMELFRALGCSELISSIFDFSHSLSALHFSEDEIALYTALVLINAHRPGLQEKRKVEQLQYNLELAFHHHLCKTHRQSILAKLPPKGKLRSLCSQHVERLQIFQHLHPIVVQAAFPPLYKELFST
# Assay: In Vitro RORc Ligand Binding Assay
# Conditions: radioligand 25-[3H]hydroxycholesterol 6 nM; 0.6 ug/mL RORc receptor; 3 h at 25° C.
# Method: In Vitro RORc Ligand Binding Assay
# This assay was used to determine a compound's potency in inhibiting activity of RORc by determining, Kiapp, IC50, or percent inhibition values.
# On day of the assay, 100 uL of 0.05% CHAPS (in deionized H2O) was added to all wells of the GFB Unifilter plate and allowed soak for 1 h. A wash buffer of 50 mM HEPES (pH 7.4), 150 mM NaCl, and 5 mM MgCl2 was prepared to wash the filter plate. To prepare an assay buffer, BSA was added to the wash buffer to reach 0.01% and DTT was added to reach 1 mM.
# For IC50 mode, 10 mM compound stocks were serially diluted in DMSO with DMSO to give 20× required final concentration in DMSO (15 uL compound+30 uL DMSO). The 20× compound stocks were diluted in DMSO with Assay Buffer 4-fold to reach 5× the final test concentration in 25% DMSO (10 uL compound+30 uL Assay Buffer). Solutions were mixed by aspiration several times with a pipette set on 50 uL volume. For the assay, 10 uL of 5× compound stock solutions in 25% DMSO were added to the assay plate in duplicate.
# For two point screening, 10 mM stock compound solutions were diluted in DMSO to obtain 200 uM (20× the high test concentration) and then diluted 10-fold further to reach 20 uM (20× the low test concentration). The 20× stocks were diluted 4-fold with Assay Buffer (10 uL compound+30 uL Assay Buffer) to reach 5× the test concentrations (50 uM and 5 uM) and 10 uL were added to two assay plates for the duplicate wells. With each concentration tested on 2 plates, each set of 80 compounds used 4 assay plates (1 uM and 10 uM, with n=2).
# 25-hydroxycholesterol (1 uM) was used to determine the level of NSB signal is prepared in DMSO as for compounds above, then diluted in Assay Buffer to give a final concentration of 5 uM. For 25-hydroxycholesterol in 25% DMSO/75% Assay Buffer; 10 uL per well was used for NSB samples. Wells for Total Binding and No Receptor sample determination contained 10 uL of 25% DMSO/75% Assay Buffer per well.
# 25-[^3H]hydroxycholesterol was dilute in Assay Buffer to obtain 15 nM and vortex to mix. Add 20 uL to all wells to reach 6 nM final in the assay.
# Stock receptor solution was diluted in assay buffer to obtain 1.5 ug/mL in Assay Buffer. 20 uL was added to all wells. For No R samples, 20 uL Assay Buffer was substituted for receptor solution.
# Assay plates were 96-well polypropylene V-bottom plates. 10 uL of 5× compound in 25% DMSO/75% Assay Buffer was added to Test wells. 10 uL of 25% DMSO/75% Assay Buffer was added to Total Binding or No Receptor wells. 10 uL of 5 uM 25-hydroxycholesterol in 25% DMSO/75% Assay Buffer was added to NSB wells. 20 uL of 15 nM 25-[^3H]hydroxycholesterol prepared in Assay Buffer was added to all wells. 20 uL of 1.5 ug/mL RORc receptor was added to wells (or […] Assay Buffer to No R wells). Following addition to the wells, the plates were incubated 3 h at 25° C.
# Using a Packard Filtermate Harvester, the filter plate were washed 4 times following transfer of the incubated samples. Plates were dry-filtered completely (2 h at 50° C. or overnight at room temperature). 50 uL Microscint 0 was added to all wells and read on Topcount protocol Inverted.
# Final concentrations were as follows: 50 mM HEPES buffer (pH 7.4); 150 mM NaCl; 1 mM DTT; 5 mM MgCl2, 0.01% BSA; 5% DMSO; 0.6 ug/mL RORc receptor; 6 nM 25-[^3H]hydroxycholesterol. For NSB wells, 1 uM 25-hydroxycholesterol was also present.
row,SMILES,IC50 [nM]
1,"CC1CCC(C2CCCCC2)S(=O)(=O)N1Cc1cc(F)c(N2CC3C(C2)C3n2cnnc2)cc1F (single isomer, unassigned) [Compound 1, 3-[4-(6-Cyclohexyl-3-methyl-1,1-dioxo-[1,2]thiazinan-2-ylmethyl)-2,5-difluoro-phenyl]-6-[1,2,4]triazol-4-yl-3-aza-bicyclo [3.1.0]hexane]",43
2,"CC1CCC(C2CCCCC2)S(=O)(=O)N1Cc1cc(F)c(N2CC3C(C2)C3n2cnnc2)cc1F (single isomer, unassigned) [Compound 2, 3-[4-(6-Cyclohexyl-3-methyl-1,1-dioxo-[1,2]thiazinan-2-ylmethyl)-2,5-difluoro-phenyl]-6-[1,2,4]triazol-4-yl-3-aza-bicyclo [3.1.0]hexane]",70
3,"CC1CC[C@H](C)N(Cc2cc(F)c(N3C[C@@H]4C(n5cnnc5)[C@@H]4C3)cc2F)S1(=O)=O (single isomer, unassigned) [Compound 5]",74
4,"CC1CC[C@H](C)N(Cc2cc(F)c(N3C[C@@H]4C(n5cnnc5)[C@@H]4C3)cc2F)S1(=O)=O (single isomer, unassigned) [Compound 6]",583
5,"CC(=O)N1CCN(c2ccc(CN3[C@@H](C)CCC(c4cccs4)S3(=O)=O)c(F)c2)CC1 (single isomer, unassigned) [Compound 7, 1-{4-[3-Fluoro-4-(3-methyl-1,1-dioxo-6-thiophen-2-yl-[1,2]thiazinan-2-ylmethyl)-phenyl]-piperazin-1-yl}-ethanone]",18
6,"CC(=O)N1CCN(c2ccc(CN3[C@@H](C)CCC(c4ccncc4)S3(=O)=O)c(F)c2)CC1 (single isomer, unassigned) [Compound 8, 1-{4-[3-Fluoro-4-(3-methyl-1,1-dioxo-6-pyridin-4-yl-[1,2]thiazinan-2-ylmethyl)-phenyl]-piperazin-1-yl}-ethanone]",1000
7,"CC(=O)N1CCN(c2ccc(CN3[C@@H](C)CCC(c4ncccn4)S3(=O)=O)c(F)c2)CC1 (single isomer, unassigned) [Compound 9, 1-{4-[3-Fluoro-4-(3-methyl-1,1-dioxo-6-pyrimidin-2-yl-[1,2]thiazinan-2-ylmethyl)-phenyl]-piperazin-1-yl}-ethanone]",792
8,"CC(=O)N1CCN(c2ccc(CN3[C@@H](C)CCC(c4ncccn4)S3(=O)=O)c(F)c2)CC1 (single isomer, unassigned) [Compound 10, 1-{4-[3-Fluoro-4-(3-methyl-1,1-dioxo-6-pyrimidin-2-yl-[1,2]thiazinan-2-ylmethyl)-phenyl]-piperazin-1-yl}-ethanone]",1100
9,"CC(=O)N1CCN(c2ccc(CN3[C@@H](C)CCC(c4ccncc4)S3(=O)=O)c(F)c2)CC1 (single isomer, unassigned) [Compound 11, 1-{4-[3-Fluoro-4-(3-methyl-1,1-dioxo-6-pyridin-4-yl-[1,2]thiazinan-2-ylmethyl)-phenyl]-piperazin-1-yl}-ethanone]",2200
10,"CC(=O)N1CCN(c2ccc(CN3[C@@H](C)CCC(c4ccsc4)S3(=O)=O)c(F)c2)CC1 (single isomer, unassigned) [Compound 12, 1-{4-[3-Fluoro-4-(3-methyl-1,1-dioxo-6-thiophen-3-yl-[1,2]thiazinan-2-ylmethyl)-phenyl]-piperazin-1-yl}-ethanone]",36
11,"CC(=O)N1CCN(c2ccc(CN3[C@@H](C)CCC(c4ccsc4)S3(=O)=O)c(F)c2)CC1 (single isomer, unassigned) [Compound 13, 1-{4-[3-Fluoro-4-(3-methyl-1,1-dioxo-6-thiophen-3-yl-[1,2]thiazinan-2-ylmethyl)-phenyl]-piperazin-1-yl}-ethanone]",123
12,"CC(=O)N1CCN(c2ccc(CN3[C@@H](C)CCC(c4cccnc4)S3(=O)=O)c(F)c2)CC1 (single isomer, unassigned) [Compound 14, 1-{4-[3-Fluoro-4-(3-methyl-1,1-dioxo-6-pyridin-3-yl-[1,2]thiazinan-2-ylmethyl)-phenyl]-piperazin-1-yl}-ethanone]",870
13,"CC(=O)N1CCN(c2ccc(CN3[C@@H](C)CCC(c4cccnc4)S3(=O)=O)c(F)c2)CC1 (single isomer, unassigned) [Compound 15, 1-{4-[3-Fluoro-4-(3-methyl-1,1-dioxo-6-pyridin-3-yl-[1,2]thiazinan-2-ylmethyl)-phenyl]-piperazin-1-yl}-ethanone]",4200
14,"CC(=O)N1CCN(c2ccc(CN3[C@@H](C)CCC(c4ccccn4)S3(=O)=O)c(F)c2)CC1 (single isomer, unassigned) [Compound 16, 1-{4-[3-Fluoro-4-(3-methyl-1,1-dioxo-6-pyridin-2-yl-[1,2]thiazinan-2-ylmethyl)-phenyl]-piperazin-1-yl}-ethanone]",292
15,"CC(=O)N1CCN(c2ccc(CN3[C@@H](C)CCC(c4ccccn4)S3(=O)=O)c(F)c2)CC1 (single isomer, unassigned) [Compound 17]",825
16,"C[C@H]1CCCS(=O)(=O)N1Cc1cc(F)c(N2C[C@@H]3C(n4cnnc4)[C@@H]3C2)cc1F (stereo partly drawn) [Compound 22, (1S,5R,6S)-3-[2,5-Difluoro-4-((S)-3-methyl-1,1-dioxo-[1,2]thiazinan-2-ylmethyl)-phenyl]-6-[1,2,4]triazol-4-yl-3-aza-bicyclo [3.1.0]hexane]",601
